Assay results as given in the NIST ThermoML archive (doi:10.1016/j.jct.2015.08.014).
± gives the expanded uncertainty stated by the source.

Test: xn = mol fraction of the nth substance listed
Details: 313.15 K, 100 kPa, Liquid, Alternating current cell with electrodes

Structure (SMILES): CCCC[N+]1(C)CCCC1.N#CN=C=[N-] [1-butyl-1-methylpyrrolidinium dicyanamide] + O=C1CCCO1
- electrical conductivity (Frequency=0.002 MHz, x1 = 1): 2 ± 0.02 S/m
- electrical conductivity (Frequency=0.0025 MHz, x1 = 0.0463): 1.79 ± 0.032 S/m
- electrical conductivity (Frequency=0.0025 MHz, x1 = 0.0987): 2.72 ± 0.034 S/m
- electrical conductivity (Frequency=0.0025 MHz, x1 = 0.1449): 3.13 ± 0.033 S/m
- electrical conductivity (Frequency=0.0025 MHz, x1 = 0.1859): 3.36 ± 0.034 S/m
- electrical conductivity (Frequency=0.0025 MHz, x1 = 0.2493): 3.36 ± 0.034 S/m
- electrical conductivity (Frequency=0.0025 MHz, x1 = 0.3029): 3.315 ± 0.033 S/m
- electrical conductivity (Frequency=0.0025 MHz, x1 = 0.3845): 3.16 ± 0.032 S/m
- electrical conductivity (Frequency=0.0025 MHz, x1 = 0.4985): 2.87 ± 0.029 S/m
- electrical conductivity (Frequency=0.0025 MHz, x1 = 0.6954): 2.425 ± 0.024 S/m
- electrical conductivity (Frequency=0.0025 MHz, x1 = 0.9013): 2.09 ± 0.021 S/m
- electrical conductivity (Frequency=0.0025 MHz, x1 = 1): 2 ± 0.02 S/m
- electrical conductivity (Frequency=0.003 MHz, x1 = 0.0463): 1.79 ± 0.032 S/m
- electrical conductivity (Frequency=0.003 MHz, x1 = 0.0987): 2.72 ± 0.034 S/m
- electrical conductivity (Frequency=0.003 MHz, x1 = 0.1449): 3.13 ± 0.033 S/m
- electrical conductivity (Frequency=0.003 MHz, x1 = 0.1859): 3.36 ± 0.034 S/m
- electrical conductivity (Frequency=0.003 MHz, x1 = 0.2493): 3.36 ± 0.034 S/m
- electrical conductivity (Frequency=0.003 MHz, x1 = 0.3029): 3.316 ± 0.033 S/m
- electrical conductivity (Frequency=0.003 MHz, x1 = 0.3845): 3.16 ± 0.032 S/m
- electrical conductivity (Frequency=0.003 MHz, x1 = 0.4985): 2.87 ± 0.029 S/m
- electrical conductivity (Frequency=0.003 MHz, x1 = 0.6954): 2.425 ± 0.024 S/m
- electrical conductivity (Frequency=0.003 MHz, x1 = 0.9013): 2.09 ± 0.021 S/m
- electrical conductivity (Frequency=0.003 MHz, x1 = 1): 2 ± 0.02 S/m
- electrical conductivity (Frequency=0.00347222 MHz, x1 = 0.0463): 1.79 ± 0.032 S/m
- electrical conductivity (Frequency=0.00347222 MHz, x1 = 0.0987): 2.72 ± 0.034 S/m
- electrical conductivity (Frequency=0.00347222 MHz, x1 = 0.1449): 3.13 ± 0.033 S/m
- electrical conductivity (Frequency=0.00347222 MHz, x1 = 0.1859): 3.37 ± 0.034 S/m
- electrical conductivity (Frequency=0.00347222 MHz, x1 = 0.2493): 3.36 ± 0.034 S/m
- electrical conductivity (Frequency=0.00347222 MHz, x1 = 0.3029): 3.317 ± 0.033 S/m
- electrical conductivity (Frequency=0.00347222 MHz, x1 = 0.3845): 3.16 ± 0.032 S/m
- electrical conductivity (Frequency=0.00347222 MHz, x1 = 0.4985): 2.87 ± 0.029 S/m
- electrical conductivity (Frequency=0.00347222 MHz, x1 = 0.6954): 2.425 ± 0.024 S/m
- electrical conductivity (Frequency=0.00347222 MHz, x1 = 0.9013): 2.09 ± 0.021 S/m
- electrical conductivity (Frequency=0.00347222 MHz, x1 = 1): 2 ± 0.02 S/m
- electrical conductivity (Frequency=0.004 MHz, x1 = 0.0463): 1.79 ± 0.032 S/m
- electrical conductivity (Frequency=0.004 MHz, x1 = 0.0987): 2.73 ± 0.034 S/m
- electrical conductivity (Frequency=0.004 MHz, x1 = 0.1449): 3.13 ± 0.033 S/m
- electrical conductivity (Frequency=0.004 MHz, x1 = 0.1859): 3.37 ± 0.034 S/m
- electrical conductivity (Frequency=0.004 MHz, x1 = 0.2493): 3.36 ± 0.034 S/m
- electrical conductivity (Frequency=0.004 MHz, x1 = 0.3029): 3.318 ± 0.033 S/m
- electrical conductivity (Frequency=0.004 MHz, x1 = 0.3845): 3.16 ± 0.032 S/m
- electrical conductivity (Frequency=0.004 MHz, x1 = 0.4985): 2.88 ± 0.029 S/m
- electrical conductivity (Frequency=0.004 MHz, x1 = 0.6954): 2.426 ± 0.024 S/m
- electrical conductivity (Frequency=0.004 MHz, x1 = 0.9013): 2.09 ± 0.021 S/m
- electrical conductivity (Frequency=0.004 MHz, x1 = 1): 2 ± 0.02 S/m
- electrical conductivity (Frequency=0.00446429 MHz, x1 = 0.0463): 1.79 ± 0.032 S/m
- electrical conductivity (Frequency=0.00446429 MHz, x1 = 0.0987): 2.73 ± 0.034 S/m
- electrical conductivity (Frequency=0.00446429 MHz, x1 = 0.1449): 3.13 ± 0.033 S/m
- electrical conductivity (Frequency=0.00446429 MHz, x1 = 0.1859): 3.37 ± 0.034 S/m
- electrical conductivity (Frequency=0.00446429 MHz, x1 = 0.2493): 3.36 ± 0.034 S/m
- electrical conductivity (Frequency=0.00446429 MHz, x1 = 0.3029): 3.318 ± 0.033 S/m
- electrical conductivity (Frequency=0.00446429 MHz, x1 = 0.3845): 3.16 ± 0.032 S/m
- electrical conductivity (Frequency=0.00446429 MHz, x1 = 0.4985): 2.88 ± 0.029 S/m
- electrical conductivity (Frequency=0.00446429 MHz, x1 = 0.6954): 2.426 ± 0.024 S/m
- electrical conductivity (Frequency=0.00446429 MHz, x1 = 0.9013): 2.09 ± 0.021 S/m
- electrical conductivity (Frequency=0.00446429 MHz, x1 = 1): 2 ± 0.02 S/m
- electrical conductivity (Frequency=0.005 MHz, x1 = 0.0463): 1.79 ± 0.032 S/m
- electrical conductivity (Frequency=0.005 MHz, x1 = 0.0987): 2.73 ± 0.034 S/m
- electrical conductivity (Frequency=0.005 MHz, x1 = 0.1449): 3.13 ± 0.033 S/m
- electrical conductivity (Frequency=0.005 MHz, x1 = 0.1859): 3.37 ± 0.034 S/m
- electrical conductivity (Frequency=0.005 MHz, x1 = 0.2493): 3.36 ± 0.034 S/m
- electrical conductivity (Frequency=0.005 MHz, x1 = 0.3029): 3.319 ± 0.033 S/m
- electrical conductivity (Frequency=0.005 MHz, x1 = 0.3845): 3.16 ± 0.032 S/m
- electrical conductivity (Frequency=0.005 MHz, x1 = 0.4985): 2.88 ± 0.029 S/m
- electrical conductivity (Frequency=0.005 MHz, x1 = 0.6954): 2.426 ± 0.024 S/m
- electrical conductivity (Frequency=0.005 MHz, x1 = 0.9013): 2.09 ± 0.021 S/m
- electrical conductivity (Frequency=0.005 MHz, x1 = 1): 2 ± 0.02 S/m
- electrical conductivity (Frequency=0.005454 MHz, x1 = 0.0463): 1.79 ± 0.032 S/m
- electrical conductivity (Frequency=0.005454 MHz, x1 = 0.0987): 2.73 ± 0.034 S/m
- electrical conductivity (Frequency=0.005454 MHz, x1 = 0.1449): 3.13 ± 0.033 S/m
- electrical conductivity (Frequency=0.005454 MHz, x1 = 0.1859): 3.37 ± 0.034 S/m
- electrical conductivity (Frequency=0.005454 MHz, x1 = 0.2493): 3.36 ± 0.034 S/m
- electrical conductivity (Frequency=0.005454 MHz, x1 = 0.3029): 3.319 ± 0.033 S/m
- electrical conductivity (Frequency=0.005454 MHz, x1 = 0.3845): 3.16 ± 0.032 S/m
- electrical conductivity (Frequency=0.005454 MHz, x1 = 0.4985): 2.88 ± 0.029 S/m
- electrical conductivity (Frequency=0.005454 MHz, x1 = 0.6954): 2.426 ± 0.024 S/m
- electrical conductivity (Frequency=0.005454 MHz, x1 = 0.9013): 2.09 ± 0.021 S/m
- electrical conductivity (Frequency=0.005454 MHz, x1 = 1): 2 ± 0.02 S/m
- electrical conductivity (Frequency=0.006 MHz, x1 = 0.0463): 1.79 ± 0.032 S/m
- electrical conductivity (Frequency=0.006 MHz, x1 = 0.0987): 2.73 ± 0.034 S/m
- electrical conductivity (Frequency=0.006 MHz, x1 = 0.1449): 3.13 ± 0.033 S/m
- electrical conductivity (Frequency=0.006 MHz, x1 = 0.1859): 3.37 ± 0.034 S/m
- electrical conductivity (Frequency=0.006 MHz, x1 = 0.2493): 3.36 ± 0.034 S/m
- electrical conductivity (Frequency=0.006 MHz, x1 = 0.3029): 3.32 ± 0.033 S/m
- electrical conductivity (Frequency=0.006 MHz, x1 = 0.3845): 3.16 ± 0.032 S/m
- electrical conductivity (Frequency=0.006 MHz, x1 = 0.4985): 2.88 ± 0.029 S/m
- electrical conductivity (Frequency=0.006 MHz, x1 = 0.6954): 2.43 ± 0.025 S/m
- electrical conductivity (Frequency=0.006 MHz, x1 = 0.9013): 2.09 ± 0.021 S/m
- electrical conductivity (Frequency=0.006 MHz, x1 = 1): 2 ± 0.02 S/m
- electrical conductivity (Frequency=0.00652174 MHz, x1 = 0.0463): 1.79 ± 0.032 S/m
- electrical conductivity (Frequency=0.00652174 MHz, x1 = 0.0987): 2.73 ± 0.034 S/m
- electrical conductivity (Frequency=0.00652174 MHz, x1 = 0.1449): 3.13 ± 0.033 S/m
- electrical conductivity (Frequency=0.00652174 MHz, x1 = 0.1859): 3.37 ± 0.034 S/m
- electrical conductivity (Frequency=0.00652174 MHz, x1 = 0.2493): 3.36 ± 0.034 S/m
- electrical conductivity (Frequency=0.00652174 MHz, x1 = 0.3029): 3.32 ± 0.033 S/m
- electrical conductivity (Frequency=0.00652174 MHz, x1 = 0.3845): 3.16 ± 0.032 S/m
- electrical conductivity (Frequency=0.00652174 MHz, x1 = 0.4985): 2.88 ± 0.029 S/m
- electrical conductivity (Frequency=0.00652174 MHz, x1 = 0.6954): 2.43 ± 0.025 S/m
- electrical conductivity (Frequency=0.00652174 MHz, x1 = 0.9013): 2.09 ± 0.021 S/m
- electrical conductivity (Frequency=0.00652174 MHz, x1 = 1): 2 ± 0.02 S/m
- electrical conductivity (Frequency=0.00694444 MHz, x1 = 0.0463): 1.79 ± 0.032 S/m
- electrical conductivity (Frequency=0.00694444 MHz, x1 = 0.0987): 2.73 ± 0.034 S/m
- electrical conductivity (Frequency=0.00694444 MHz, x1 = 0.1449): 3.13 ± 0.033 S/m
- electrical conductivity (Frequency=0.00694444 MHz, x1 = 0.1859): 3.37 ± 0.034 S/m
- electrical conductivity (Frequency=0.00694444 MHz, x1 = 0.2493): 3.36 ± 0.034 S/m
- electrical conductivity (Frequency=0.00694444 MHz, x1 = 0.3029): 3.32 ± 0.033 S/m
- electrical conductivity (Frequency=0.00694444 MHz, x1 = 0.3845): 3.16 ± 0.032 S/m
